16 compounds from US9708336B2, “Metallo-beta-lactamase inhibitors” (priority 2014, dated 2017) can be followed below.

Assay [1] has as its target VIM-1 (Pseudomonas aeruginosa (strain ATCC 15692 / DSM 22644 / CIP 104116 / JCM 14847 / LMG 12228 / 1C / PRS 101 / PAO1), UniProt A0A0F7KYQ8). Briefly: Enzyme activity: determination of IC50, fluorescence assay with CCF2-FA substrate (VIM-1). The class given is biochemical. As to conditions: CCF2-FA substrate.
For assay [2], the target named is IMP-1 (Serratia marcescens, UniProt P52699). The experiment in a line: biochemical. The class given is biochemical.
The target of assay [3] is NDM-1 (Klebsiella pneumoniae, UniProt C7C422). The experiment in a line: biochemical. The assay is classed as biochemical.
The test system of assay [4] is Serratia marcescens expressing IMP-1 (CL5741). The experiment in a line: Antibiotic potentiation activity: synergistic concentration (MITC95) with imipenem, OD600 growth. The class given is cell-based. As to conditions: Serratia marcescens CL5741 (IMP-1), 95% growth inhibition. In short, it runs like this: (§1)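 In 1.1× CAMHB, clinical isolates from overnight plates were challenged with test compound alongside imipenem at an assay concentration of 4 μg/ml, sometimes 1 μg/ml. Plates sat covered at 35 °C for 22–24 h prior to spectrophotometric reading.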

In assay [5] the test system is Klebsiella pneumoniae expressing VIM-1 (IHMA599644). The assay is described as above. The class given is cell-based. As to conditions: Klebsiella pneumoniae IHMA599644 (VIM-1), 95% growth inhibition. In short, it runs like this: as §1
Assay [6] concerns Escherichia coli expressing NDM-1 (CLB30016). The description is as above. The class given is cell-based. The note with it: (CLB30016, NDM-1), 95% growth inhibition. In short, it runs like this: as §1
[7] abbreviates: VIM-1 enzyme, read-out: VIM-1 IC50.
Where [8] appears, read: IMP-1 enzyme, CCF2-FA substrate, read-out: IMP-1 IC50.
[9] abbreviates: NDM-1 enzyme, CCF2-FA substrate, read-out: NDM-1 IC50.

Molecules are shown by their SMILES. Like-named read-outs stand apart in the source and are kept apart here.

Sequence of IMP-1 (P52699 whole entry, looked up): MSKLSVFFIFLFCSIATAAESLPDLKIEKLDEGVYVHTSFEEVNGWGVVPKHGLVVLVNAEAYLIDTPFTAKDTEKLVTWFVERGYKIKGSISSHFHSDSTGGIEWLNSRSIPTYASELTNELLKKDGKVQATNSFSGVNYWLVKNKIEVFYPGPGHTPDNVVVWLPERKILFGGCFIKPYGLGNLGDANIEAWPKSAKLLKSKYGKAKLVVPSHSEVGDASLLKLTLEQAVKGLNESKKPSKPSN
Sequence of NDM-1 (C7C422 whole entry, looked up, species assumed): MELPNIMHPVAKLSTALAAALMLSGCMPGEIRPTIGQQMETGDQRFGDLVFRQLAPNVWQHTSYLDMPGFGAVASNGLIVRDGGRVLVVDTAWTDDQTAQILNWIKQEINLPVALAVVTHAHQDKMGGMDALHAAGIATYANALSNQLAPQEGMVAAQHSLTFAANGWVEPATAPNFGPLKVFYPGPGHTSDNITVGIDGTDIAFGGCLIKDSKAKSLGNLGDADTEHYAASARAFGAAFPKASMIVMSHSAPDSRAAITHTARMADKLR

As a reminder, the IC50 is the point on the concentration scale where inhibition reaches its midpoint. With `NS(=O)(=O)c1c(C(F)(F)F)ccc(-c2ccc(C3CCN(CC4CCNCC4)CC3)cc2)c1-c1nnn[nH]1` [Example 668, 4′-[1-(piperidin-4-ylmethyl)piperidin-4-yl]-2-(1H-tetrazol-5-yl)-4-(trifluoromethyl)biphenyl-3-sulfonamide], the IC50 in assay [1] (setting [7]) is 7.04 nM; in assay [2] (setting [8]), 2.8 nM; in assay [3] (setting [9]) it was 9.32 nM. In addition, in assay [4], the “Serratia marcescens MITC95” value amounted to 3.125 µM. In addition, the “Klebsiella pneumoniae MITC95” value in assay [5] stood at 50 µM. For the same compound, the “Escherichia coli MITC95” value in assay [6] stood at 1.563 µM.
Turning to `NS(=O)(=O)c1c(C(F)(F)F)ccc(-c2ccc(C3CCN(C[C@@H]4CCCN4)CC3)cc2)c1-c1nnn[nH]1` [Example 669, 4′-{1-[(2S)-pyrrolidin-2-ylmethyl]piperidin-4-yl}-2-(1H-tetrazol-5-yl)-4-(trifluoromethyl)biphenyl-3-sulfonamide], the IC50 in assay [1] (VIM-1 IC50, VIM-1 enzyme) was 8.99 nM; in assay [2] (setting [8]) it was 0.688 nM; in assay [3] (setting [9]) it was 3.92 nM. Moreover, the “Serratia marcescens MITC95” value in assay [4] came out at 2.344 µM. For the same compound, in assay [5], the “Klebsiella pneumoniae MITC95” value was over 200 µM. The “Escherichia coli MITC95” value in assay [6] came out at 2.344 µM.
As to `NS(=O)(=O)c1c(C(F)(F)F)ccc(-c2ccc(C3CCN(C[C@H]4CNCCO4)CC3)cc2)c1-c1nnn[nH]1` [Example 670, 4′-{1-[(2R)-morpholin-2-ylmethyl]piperidin-4-yl}-2-(1H-tetrazol-5-yl)-4-(trifluoromethyl)biphenyl-3-sulfonamide], the values for the IC50 in assay [1] (setting [7]), in assay [2] (setting [8]) and in assay [3] (setting [9]) were 3.53 nM, 1.08 nM and 4.11 nM, respectively. For the same compound, the “Serratia marcescens MITC95” value in assay [4] was 3.125 µM. Also, in assay [5], the “Klebsiella pneumoniae MITC95” value worked out at 25 µM. Besides, the “Escherichia coli MITC95” value in assay [6] was 1.563 µM.
On to `NS(=O)(=O)c1c(C(F)(F)F)ccc(-c2ccc(C3CCN(CC4CNC4)CC3)cc2)c1-c1nnn[nH]1` [Example 671, 4′-[1-(azetidin-3-ylmethyl)piperidin-4-yl]-2-(1H-tetrazol-5-yl)-4-(trifluoromethyl)biphenyl-3-sulfonamide], for which the IC50 in assay [1] (setting [7]) turned out to be 5.65 nM; in assay [2] (setting [8]) it was 2 nM; in assay [3] (setting [9]), 4.13 nM. Also, the “Serratia marcescens MITC95” value in assay [4] amounted to 1.563 µM. Besides, in assay [5], the “Klebsiella pneumoniae MITC95” value was 37.5 µM. Further, the “Escherichia coli MITC95” value in assay [6] was 1.172 µM.
As for `NC1(CN2CCC(c3ccc(-c4ccc(C(F)(F)F)c(S(N)(=O)=O)c4-c4nnn[nH]4)cc3)CC2)CC1` [Example 672, 4′-{1-[(1-aminocyclopropyl)methyl]piperidin-4-yl}-2-(1H-tetrazol-5-yl)-4-(trifluoromethyl)biphenyl-3-sulfonamide], the IC50 in assay [1] (VIM-1 IC50, VIM-1 enzyme) is 3.38 nM; in assay [2] (setting [8]), 2.51 nM; in assay [3] (setting [9]), 3.66 nM. Further, the “Serratia marcescens MITC95” value in assay [4] worked out at 4.688 µM. Moreover, the “Klebsiella pneumoniae MITC95” value in assay [5] was 75 µM. Also, in assay [6], the “Escherichia coli MITC95” value turned out to be 6.25 µM.
For `NS(=O)(=O)c1c(C(F)(F)F)ccc(-c2ccc(C3CCN(CC4CCCNC4)CC3)cc2)c1-c1nnn[nH]1` (stereo not drawn) [Example 673, 4′-[1-(piperidin-3-ylmethyl)piperidin-4-yl]-2-(1H-tetrazol-5-yl)-4-(trifluoromethyl)biphenyl-3-sulfonamide], the figures for the IC50 in assay [1] (setting [7]), in assay [2] (setting [8]) and in assay [3] (setting [9]) were 9.07 nM, 1.35 nM and 10.1 nM, respectively. For the same compound, in assay [4], the “Serratia marcescens MITC95” value was 3.125 µM. Further, the “Klebsiella pneumoniae MITC95” value in assay [5] was determined as 62.5 µM. In addition, the “Escherichia coli MITC95” value in assay [6] was 3.125 µM.
`CNCCN1CCC(c2ccc(-c3ccc(C(F)(F)F)c(S(N)(=O)=O)c3-c3nnn[nH]3)cc2)CC1` [Example 674, 4′-{1-[2-(methylamino)ethyl]piperi-din-4-yl}-2-(1H-tetrazol-5-yl)-4-(trifluoromethyl)biphenyl-3-sulfonamide]: the IC50 in assay [1] (setting [7]) came out at 17.4 nM; in assay [2] (setting [8]), 2.47 nM; in assay [3] (setting [9]), 6.63 nM. For the same compound, the “Serratia marcescens MITC95” value in assay [4] is 6.25 µM. In addition, in assay [5], the “Klebsiella pneumoniae MITC95” value was found to be 75 µM. In assay [6], the “Escherichia coli MITC95” value is 3.125 µM.
`NS(=O)(=O)c1c(C(F)(F)F)ccc(-c2ccc(C3CCN(C[C@H]4CCCN4)CC3)cc2)c1-c1nnn[nH]1` [Example 675, 4′-{1-[(2R)-pyrrolidin-2-ylmethyl]piperidin-4-yl}-2-(1H-tetrazol-5-yl)-4-(trifluoromethyl)biphenyl-3-sulfonamide]: the IC50 was determined as 14.7 nM in assay [1] (VIM-1 IC50, VIM-1 enzyme); 1.94 nM in assay [2] (setting [8]); 4.53 nM in assay [3] (setting [9]). Moreover, the “Serratia marcescens MITC95” value in assay [4] came out at 6.25 µM. In addition, the “Klebsiella pneumoniae MITC95” value in assay [5] came to 150 µM. Besides, in assay [6], the “Escherichia coli MITC95” value worked out at 4.688 µM.
On to `NS(=O)(=O)c1c(C(F)(F)F)ccc(-c2ccc(C3CCN(CC4CCCCN4)CC3)cc2)c1-c1nnn[nH]1` (stereo not drawn) [Example 676, 4′-[1-(piperidin-2-ylmethyl)piperidin-4-yl]-2-(1H-tetrazol-5-yl)-4-(trifluoromethyl)biphenyl-3-sulfonamide], for which the IC50 in assay [1] (setting [7]) came out at 9.1 nM; in assay [2] (setting [8]), 1.26 nM; in assay [3] (setting [9]), 5.59 nM. In assay [4], the “Serratia marcescens MITC95” value stood at 6.25 µM. Besides, the “Klebsiella pneumoniae MITC95” value in assay [5] was over 200 µM. Further, in assay [6], the “Escherichia coli MITC95” value is 12.5 µM.
In the case of `C[N+](C)(C)CCN1CCC(c2ccc(-c3ccc(C(F)(F)F)c(S(N)(=O)=O)c3-c3nnn[nH]3)cc2)CC1` [Example 677, N,N,N-trimethyl-2-{4-[3′-sulfamoyl-2′-(1H-tetrazol-5-yl)-4′-(trifluoromethyl)biphenyl-4-yl]piperidin-1-yl}ethanaminium], the IC50 in assay [1] (setting [7]) was 19.4 nM; in assay [2] (setting [8]), 0.541 nM; in assay [3] (setting [9]), 4.17 nM. Besides, the “Serratia marcescens MITC95” value in assay [4] turned out to be 12.5 µM. In addition, the “Klebsiella pneumoniae MITC95” value in assay [5] was over 200 µM. For the same compound, the “Escherichia coli MITC95” value in assay [6] amounted to 12.5 µM.
As to `NS(=O)(=O)c1c(C(F)(F)F)ccc(-c2ccc(C3CCN(C[C@@H]4CNCCO4)CC3)cc2)c1-c1nnn[nH]1` [Example 678, 4′-{1-[(2S)-morpholin-2-ylmethyl]piperidin-4-yl}-2-(1H-tetrazol-5-yl)-4-(trifluoromethyl)biphenyl-3-sulfonamide], the IC50 amounted to 20.7 nM in assay [1] (setting [7]), 5 nM in assay [2] (setting [8]) and 15.3 nM in assay [3] (setting [9]). Besides, the “Serratia marcescens MITC95” value in assay [4] was determined as 6.25 µM. The “Klebsiella pneumoniae MITC95” value in assay [5] was determined as 150 µM. For the same compound, the “Escherichia coli MITC95” value in assay [6] is 9.375 µM.
`NS(=O)(=O)c1c(C(F)(F)F)ccc([C@H]2CC[C@H](N[C@H]3CC[C@H]4CCN[C@H]4C3)CC2)c1-c1nnn[nH]1` [Example 679, 3-{4-[(3aS,6S,7aS)-octahydro-1H-indol-6-ylamino]cyclohexyl}-2-(1H-tetrazol-5-yl)-6-(trifluoromethyl)benzene sulfonamide]: the IC50 in assay [1] (VIM-1 IC50, VIM-1 enzyme) was 21.2 nM; in assay [2] (setting [8]), 75.3 nM; in assay [3] (setting [9]), 19.8 nM. In addition, the “Serratia marcescens MITC95” value in assay [4] was determined as 3.125 µM. Besides, the “Klebsiella pneumoniae MITC95” value in assay [5] came out at 50 µM. Further, in assay [6], the “Escherichia coli MITC95” value is 1.563 µM.
`NS(=O)(=O)c1c(C(F)(F)F)ccc([C@H]2CC[C@H](NCC3CCNCC3)CC2)c1-c1nnn[nH]1` [Example 680, 3-{4-[(piperidin-4-ylmethyl)amino]cyclohex-yl}-2-(1H-tetrazol-5-yl)-6-(trifluoromethyl)benzene sulfonamide]: the IC50 in assay [1] (setting [7]) is 5.16 nM; in assay [2] (setting [8]), 86.6 nM; in assay [3] (setting [9]), 41.4 nM. Further, the “Serratia marcescens MITC95” value in assay [4] is 3.125 µM. For the same compound, the “Klebsiella pneumoniae MITC95” value in assay [5] worked out at 6.25 µM. For the same compound, the “Escherichia coli MITC95” value in assay [6] turned out to be 1.563 µM.
Turning to `NS(=O)(=O)c1c(C(F)(F)F)ccc([C@H]2CC[C@H](NCC3CCCN3)CC2)c1-c1nnn[nH]1` (stereo partly drawn) [Example 681, 3-{4-[(pyrrolidin-2-ylmethyl)amino]cyclohex-yl}-2-(1H-tetrazol-5-yl)-6-(trifluoromethyl)benzene sulfonamide], the IC50 was 7.1 nM in assay [1] (VIM-1 IC50, VIM-1 enzyme); 16.1 nM in assay [2] (setting [8]); 8.72 nM in assay [3] (setting [9]). Further, the “Serratia marcescens MITC95” value in assay [4] worked out at 3.125 µM. Further, in assay [5], the “Klebsiella pneumoniae MITC95” value worked out at 6.25 µM. The “Escherichia coli MITC95” value in assay [6] is 1.563 µM.
On to `Nc1ccc(CN[C@H]2CC[C@H](c3ccc(C(F)(F)F)c(S(N)(=O)=O)c3-c3nnn[nH]3)CC2)cn1` [Example 682, 3-(4-{[(6-aminopyridin-3-yl)methyl]amino}cyclohex-yl)-2-(1H-tetrazol-5-yl)-6-(trifluoromethyl)benzene sulfonamide], for which the IC50 turned out to be 0.684 nM in assay [1] (setting [7]), 27.4 nM in assay [2] and 4.12 nM in assay [3]. Also, the “Serratia marcescens MITC95” value in assay [4] came to 6.25 µM. Moreover, the “Klebsiella pneumoniae MITC95” value in assay [5] came out at 12.5 µM. In addition, the “Escherichia coli MITC95” value in assay [6] came to 6.25 µM.
Consider `CC(N[C@H]1CC[C@H](c2ccc(C(F)(F)F)c(S(N)(=O)=O)c2-c2nnn[nH]2)CC1)C1CCNCC1` (stereo partly drawn) [Example 683, 3-{4-[(1-piperidin-4-ylethyl)amino]cyclohexyl}-2-(1H-tetrazol-5-yl)-6-(trifluoromethyl)benzene sulfonamide], for which the results for the IC50 in assay [1] (setting [7]), in assay [2] (setting [8]) and in assay [3] (setting [9]) were 28.1 nM, 154 nM and 31.5 nM, respectively. For the same compound, in assay [4], the “Serratia marcescens MITC95” value turned out to be 12.5 µM. The “Klebsiella pneumoniae MITC95” value in assay [5] was 50 µM. Also, in assay [6], the “Escherichia coli MITC95” value worked out at 3.125 µM.
